We go through 3 substances from patent US9861689B2, “Vaccination with immuno-isolated cells producing an immunomodulator” (MaxiVAX SA, priority 2015, dated 2018).

For assay [1], the system named is STAT5 A/B [pTyr694/699]. The settings on record: STAT5 TF-1 cell line, inhibitor mode, GM-CSF stimulation; representative value; cited from earlier work.
The subject of assay [2] is STAT5 A/B [pTyr694/699]. Nature of the assay: LanthaScreen STAT5 TF-1 Activator Screen, GM-CSF Stimulation. The note with it: cell supernatant. Format: cell-based. The protocol:
A functional cell-based assay was performed in order to determine the biological activity of the GM-CSF produced by the MVX-1 cell line. Two samples of the cell supernatant containing the produced GM-CSF were tested in duplicate using the LanthaScreen™ Cellular Assay (ThermoFisher Scientific), which uses time-resolved resonance energy transfer (TR-FRET) between a terbium-labeled phosphorylation-site specific antibody (PSSA) and a green fluorescent protein (GFP fusion of a particular kinase substrate to provide an assay readout that is ratiometric, robust, and amenable to high-throughput screening (HTS) applications. The use of a GFP fusion of the target along with a single detection antibody simplifies the assay protocol, eliminates the need for beads or additional reagents, and simplifies the assay relative to other two-antibody “sandwich” approaches.
1. 32 μL of cells diluted in Assay Media to appropriate cell density are added to the assay plate. […]
4. The assay plate is incubated at 37° C./5% CO2 in a humidified incubator for a pre-determined length of time (cell line/assay specific).
5. Cells are lysed by the addition of lysis buffer with a pre-determined concentration of Tb-labeled Ab (assay specific).
6. The assay plates are incubated in the dark at room temperature for a pre-determined length of time (assay specific).
7. Read plate on a fluorescence plate reader. […]

Assay [3] deals with STAT5 A/B [pTyr694/699]. The note with it: STAT5 TF-1 cell line, activator mode; representative value; cited from earlier work.

A word on the IC50: it is the concentration that inhibits the measured activity by half. JAK Inhibitor I: the IC50 in the assay with STAT5 A/B [pTyr694/699] [1] was 37.3 nM.

For “GM-CSF produced by the MVX-1 cell line: huGM-CSF in cell supernatant of the genetically modified MVX-1 cell line”, the “results of the functional cell-based assay” value with STAT5 A/B [pTyr694/699] [2] (two samples in duplicate (FIGS. 7A-D)) was “all positive”. In the assay with STAT5 A/B [pTyr694/699] [2] (two samples in duplicate, within the limitations of the assay), the “biological activity compared with commercially available GM-CSF” value is given as “equivalent to commercially available GM-CSF”.

Broadly, the EC50 is the concentration needed to bring the measured effect to its halfway point. Regarding “granulocyte macrophage-colony stimulating factor [GM-CSF]”, in the assay with STAT5 A/B [pTyr694/699] [3], the EC50 is 3 pM.
